{"source": "patent US8835377B2", "about": "“Oral delivery of peptide pharmaceutical compositions” (UGP Therapeutics, Inc., priority 2004, dated 2014)", "test": "Pharmacokinetics after oral capsules (sCT plus Dmt-DALDA with citric acid and lauroyl carnitine), non-enteric coated or enteric coated, in fasted beagle dogs (plasma; ELISA for sCT, HPLC-MS for Dmt-DALDA)", "type": "in vivo", "method": "A second series of tests was carried out, as noted above, using beagle dogs. […] In the experiments represented in FIGS. 2A and 2B, size 00 […] capsules were each filled with 758 mg of a powdered blend consisting of citric acid (643 mg), lauroyl carnitine (66 mg), talc (33 mg), salmon calcitonin (sCT) (13 mg) and Dmt-DALDA (2.4 mg). Half of the capsules were coated with an enteric coating solution of L30D-55, while the remaining 50% of the capsules were not coated. Four fasted dogs were each given 1 uncoated capsule, and 2 weeks later they were each given an enteric coated capsule. After administration of each capsule, samples of blood were taken at 15 minute intervals from an indwelling catheter for up to 4 hours. The blood samples were centrifuged and the resulting plasma supernatants were stored frozen at −20° C. The plasma samples were subsequently analyzed for sCT by a direct ELISA, and for Dmt-DALDA by HPLC-mass spectrometry performed as set forth in Wan, H. and Desiderio, D., Quantitation of [DMT^1] DALDA in ovine plasma by on-line liquid chromatography/quadrapole time-of-flight mass spectrometry, Rapid Communications in Mass Spectrometry, 2003; 17, 538-546, the contents of which are incorporated herein by reference.\nThe results summarized in FIGS. 2A and 2B as plasma peptide concentration normalized to a 1 mg dose as a function of time relative to the average Tmax, (i.e., the time at which the maximum amount of peptide was detected) indicate that both peptides, i.e., sCT and Dmt-DALDA, were detected in dogs given uncoated or enteric coated capsules. […] Table DI (below) sets forth the values upon which the curves in FIGS. 2A and 2B are based. The results are summarized in the tables as plasma peptide concentration normalized to a 1 mg dose as a function of time. Table III, moreover, provides the standard deviations for the data obtained regarding each of the test dogs, which standard deviations are also indicated in FIGS. 2A and 2B.\nTable IV (below) summarizes the pharmacokinetic parameters in dogs of orally administered sCT and Dmt-DALDA when administered in non-enteric coated versus enteric coated capsules. Peptide was not detected from 1 dog in each group due to (a) Dog 3 vomiting the uncoated capsule and (b) delayed gastric emptying in Dog 2 provided with an enteric coated capsule. Cmax and AUC are as defined with regard to Table H above."}
{"smiles": "CC(C)C[C@H](NC(=O)[C@H](CCCCN)NC(=O)CNC(=O)[C@H](CC(C)C)NC(=O)[C@@H](NC(=O)[C@@H]1CSSC[C@H](N)C(=O)N[C@@H](CO)C(=O)N[C@@H](CC(N)=O)C(=O)N[C@@H](CC(C)C)C(=O)N[C@@H](CO)C(=O)N[C@@H]([C@@H](C)O)C(=O)N1)C(C)C)C(=O)N[C@@H](CO)C(=O)N[C@@H](CCC(N)=O)C(=O)N[C@@H](CCC(=O)O)C(=O)N[C@@H](CC(C)C)C(=O)N[C@@H](Cc1c[nH]cn1)C(=O)N[C@@H](CCCCN)C(=O)N[C@@H](CC(C)C)C(=O)N[C@@H](CCC(N)=O)C(=O)N[C@H](C(=O)N[C@@H](Cc1ccc(O)cc1)C(=O)N1CCC[C@H]1C(=O)N[C@@H](CCCNC(=N)N)C(=O)N[C@H](C(=O)N[C@@H](CC(N)=O)C(=O)N[C@H](C(=O)NCC(=O)N[C@@H](CO)C(=O)NCC(=O)N[C@H](C(=O)N1CCC[C@H]1C(N)=O)[C@@H](C)O)[C@@H](C)O)[C@@H](C)O)[C@@H](C)O", "note": "[sCT, salmon calcitonin]", "values": [{"measurement": "plasma peptide concentration normalized to a 1 mg dose", "setting": "enteric coated capsule, Dog 3, 75 min", "result": 0, "unit": "pg/mL"}, {"measurement": "plasma peptide concentration normalized to a 1 mg dose", "setting": "enteric coated capsule, Dog 3, 90 min", "result": 0, "unit": "pg/mL"}, {"measurement": "plasma peptide concentration normalized to a 1 mg dose", "setting": "enteric coated capsule, Dog 3, 105 min", "result": 0, "unit": "pg/mL"}, {"measurement": "plasma peptide concentration normalized to a 1 mg dose", "setting": "enteric coated capsule, Dog 3, 120 min", "result": 0, "unit": "pg/mL"}, {"measurement": "plasma peptide concentration normalized to a 1 mg dose", "setting": "enteric coated capsule, Dog 3, 135 min", "result": 13219, "unit": "pg/mL"}, {"measurement": "plasma peptide concentration normalized to a 1 mg dose", "setting": "enteric coated capsule, Dog 3, 150 min", "result": 10151, "unit": "pg/mL"}, {"measurement": "plasma peptide concentration normalized to a 1 mg dose", "setting": "enteric coated capsule, Dog 3, 165 min", "result": 4410, "unit": "pg/mL"}, {"measurement": "plasma peptide concentration normalized to a 1 mg dose", "setting": "enteric coated capsule, Dog 3, 180 min", "result": 2983, "unit": "pg/mL"}, {"measurement": "plasma peptide concentration normalized to a 1 mg dose", "setting": "enteric coated capsule, Dog 3, 195 min", "result": 1825, "unit": "pg/mL"}, {"measurement": "plasma peptide concentration normalized to a 1 mg dose", "setting": "enteric coated capsule, Dog 4, 0 min", "result": 0, "unit": "pg/mL"}, {"measurement": "plasma peptide concentration normalized to a 1 mg dose", "setting": "enteric coated capsule, Dog 4, 15 min", "result": 0, "unit": "pg/mL"}, {"measurement": "plasma peptide concentration normalized to a 1 mg dose", "setting": "enteric coated capsule, Dog 4, 30 min", "result": 0, "unit": "pg/mL"}, {"measurement": "plasma peptide concentration normalized to a 1 mg dose", "setting": "enteric coated capsule, Dog 4, 45 min", "result": 0, "unit": "pg/mL"}, {"measurement": "plasma peptide concentration normalized to a 1 mg dose", "setting": "enteric coated capsule, Dog 4, 60 min", "result": 0, "unit": "pg/mL"}, {"measurement": "plasma peptide concentration normalized to a 1 mg dose", "setting": "enteric coated capsule, Dog 4, 75 min", "result": 0, "unit": "pg/mL"}, {"measurement": "plasma peptide concentration normalized to a 1 mg dose", "setting": "enteric coated capsule, Dog 4, 90 min", "result": 0, "unit": "pg/mL"}, {"measurement": "plasma peptide concentration normalized to a 1 mg dose", "setting": "enteric coated capsule, Dog 4, 105 min", "result": 13111, "unit": "pg/mL"}, {"measurement": "plasma peptide concentration normalized to a 1 mg dose", "setting": "enteric coated capsule, Dog 4, 120 min", "result": 13147, "unit": "pg/mL"}, {"measurement": "plasma peptide concentration normalized to a 1 mg dose", "setting": "enteric coated capsule, Dog 4, 135 min", "result": 6841, "unit": "pg/mL"}, {"measurement": "plasma peptide concentration normalized to a 1 mg dose", "setting": "enteric coated capsule, Dog 4, 150 min", "result": 4251, "unit": "pg/mL"}, {"measurement": "plasma peptide concentration normalized to a 1 mg dose", "setting": "enteric coated capsule, Dog 4, 165 min", "result": 2448, "unit": "pg/mL"}, {"measurement": "plasma peptide concentration normalized to a 1 mg dose", "setting": "enteric coated capsule, Dog 4, 180 min", "result": 1468, "unit": "pg/mL"}, {"measurement": "plasma peptide concentration normalized to a 1 mg dose", "setting": "enteric coated capsule, Dog 4, 195 min", "result": 1192, "unit": "pg/mL"}, {"measurement": "plasma peptide concentration normalized to a 1 mg dose", "setting": "non-enteric coated capsule, Dog 1, 45 min", "result": 1343, "unit": "pg/mL"}, {"measurement": "plasma peptide concentration normalized to a 1 mg dose", "setting": "non-enteric coated capsule, Dog 1, 60 min", "result": 561, "unit": "pg/mL"}, {"measurement": "plasma peptide concentration normalized to a 1 mg dose", "setting": "non-enteric coated capsule, Dog 1, 75 min", "result": 273, "unit": "pg/mL"}, {"measurement": "plasma peptide concentration normalized to a 1 mg dose", "setting": "non-enteric coated capsule, Dog 1, 90 min", "result": 140, "unit": "pg/mL"}, {"measurement": "plasma peptide concentration normalized to a 1 mg dose", "setting": "non-enteric coated capsule, Dog 1, 105 min", "result": 121, "unit": "pg/mL"}, {"measurement": "plasma peptide concentration normalized to a 1 mg dose", "setting": "non-enteric coated capsule, Dog 1, 120 min", "result": 89, "unit": "pg/mL"}, {"measurement": "plasma peptide concentration normalized to a 1 mg dose", "setting": "non-enteric coated capsule, Dog 1, 135 min", "result": 51, "unit": "pg/mL"}, {"measurement": "plasma peptide concentration normalized to a 1 mg dose", "setting": "non-enteric coated capsule, Dog 1, 150 min", "result": 31, "unit": "pg/mL"}, {"measurement": "plasma peptide concentration normalized to a 1 mg dose", "setting": "non-enteric coated capsule, Dog 1, 165 min", "result": 23, "unit": "pg/mL"}, {"measurement": "plasma peptide concentration normalized to a 1 mg dose", "setting": "non-enteric coated capsule, Dog 1, 180 min", "result": 16, "unit": "pg/mL"}, {"measurement": "plasma peptide concentration normalized to a 1 mg dose", "setting": "non-enteric coated capsule, Dog 1, 195 min", "result": 11, "unit": "pg/mL"}, {"measurement": "plasma peptide concentration normalized to a 1 mg dose", "setting": "non-enteric coated capsule, Dog 1, 210 min", "result": 0, "unit": "pg/mL"}, {"measurement": "plasma peptide concentration normalized to a 1 mg dose", "setting": "non-enteric coated capsule, Dog 1, 225 min", "result": 0, "unit": "pg/mL"}, {"measurement": "plasma peptide concentration normalized to a 1 mg dose", "setting": "non-enteric coated capsule, Dog 1, 240 min", "result": 0, "unit": "pg/mL"}, {"measurement": "plasma peptide concentration normalized to a 1 mg dose", "setting": "non-enteric coated capsule, Dog 2, 45 min", "result": 2151, "unit": "pg/mL"}, {"measurement": "plasma peptide concentration normalized to a 1 mg dose", "setting": "non-enteric coated capsule, Dog 2, 60 min", "result": 897, "unit": "pg/mL"}, {"measurement": "plasma peptide concentration normalized to a 1 mg dose", "setting": "non-enteric coated capsule, Dog 2, 75 min", "result": 229, "unit": "pg/mL"}, {"measurement": "plasma peptide concentration normalized to a 1 mg dose", "setting": "non-enteric coated capsule, Dog 2, 90 min", "result": 182, "unit": "pg/mL"}, {"measurement": "plasma peptide concentration normalized to a 1 mg dose", "setting": "non-enteric coated capsule, Dog 2, 105 min", "result": 122, "unit": "pg/mL"}, {"measurement": "plasma peptide concentration normalized to a 1 mg dose", "setting": "non-enteric coated capsule, Dog 2, 120 min", "result": 69, "unit": "pg/mL"}, {"measurement": "plasma peptide concentration normalized to a 1 mg dose", "setting": "non-enteric coated capsule, Dog 2, 135 min", "result": 44, "unit": "pg/mL"}, {"measurement": "plasma peptide concentration normalized to a 1 mg dose", "setting": "non-enteric coated capsule, Dog 2, 150 min", "result": 39, "unit": "pg/mL"}, {"measurement": "plasma peptide concentration normalized to a 1 mg dose", "setting": "non-enteric coated capsule, Dog 2, 165 min", "result": 22, "unit": "pg/mL"}, {"measurement": "plasma peptide concentration normalized to a 1 mg dose", "setting": "non-enteric coated capsule, Dog 2, 180 min", "result": 15, "unit": "pg/mL"}, {"measurement": "plasma peptide concentration normalized to a 1 mg dose", "setting": "non-enteric coated capsule, Dog 2, 195 min", "result": 0, "unit": "pg/mL"}, {"measurement": "plasma peptide concentration normalized to a 1 mg dose", "setting": "non-enteric coated capsule, Dog 2, 210 min", "result": 0, "unit": "pg/mL"}, {"measurement": "plasma peptide concentration normalized to a 1 mg dose", "setting": "non-enteric coated capsule, Dog 2, 225 min", "result": 0, "unit": "pg/mL"}, {"measurement": "plasma peptide concentration normalized to a 1 mg dose", "setting": "non-enteric coated capsule, Dog 2, 240 min", "result": 0, "unit": "pg/mL"}, {"measurement": "plasma peptide concentration normalized to a 1 mg dose", "setting": "non-enteric coated capsule, Dog 4, 45 min", "result": 278, "unit": "pg/mL"}, {"measurement": "plasma peptide concentration normalized to a 1 mg dose", "setting": "non-enteric coated capsule, Dog 4, 60 min", "result": 163, "unit": "pg/mL"}, {"measurement": "plasma peptide concentration normalized to a 1 mg dose", "setting": "non-enteric coated capsule, Dog 4, 75 min", "result": 101, "unit": "pg/mL"}, {"measurement": "plasma peptide concentration normalized to a 1 mg dose", "setting": "non-enteric coated capsule, Dog 4, 90 min", "result": 69, "unit": "pg/mL"}, {"measurement": "plasma peptide concentration normalized to a 1 mg dose", "setting": "non-enteric coated capsule, Dog 4, 105 min", "result": 45, "unit": "pg/mL"}, {"measurement": "plasma peptide concentration normalized to a 1 mg dose", "setting": "non-enteric coated capsule, Dog 4, 120 min", "result": 26, "unit": "pg/mL"}, {"measurement": "plasma peptide concentration normalized to a 1 mg dose", "setting": "non-enteric coated capsule, Dog 4, 135 min", "result": 16, "unit": "pg/mL"}, {"measurement": "plasma peptide concentration normalized to a 1 mg dose", "setting": "non-enteric coated capsule, Dog 4, 150 min", "result": 12, "unit": "pg/mL"}, {"measurement": "plasma peptide concentration normalized to a 1 mg dose", "setting": "non-enteric coated capsule, Dog 4, 165 min", "result": 0, "unit": "pg/mL"}, {"measurement": "plasma peptide concentration normalized to a 1 mg dose", "setting": "non-enteric coated capsule, Dog 4, 180 min", "result": 0, "unit": "pg/mL"}, {"measurement": "plasma peptide concentration normalized to a 1 mg dose", "setting": "non-enteric coated capsule, Dog 4, 195 min", "result": 0, "unit": "pg/mL"}, {"measurement": "plasma peptide concentration normalized to a 1 mg dose", "setting": "non-enteric coated capsule, Dog 4, 210 min", "result": 0, "unit": "pg/mL"}, {"measurement": "plasma peptide concentration normalized to a 1 mg dose", "setting": "non-enteric coated capsule, Dog 4, 225 min", "result": 0, "unit": "pg/mL"}, {"measurement": "plasma peptide concentration normalized to a 1 mg dose", "setting": "non-enteric coated capsule, Dog 4, 240 min", "result": 0, "unit": "pg/mL"}]}
